Assay results reported in article PMC7429991 (Journal of medicinal chemistry, 2020).
pKi: −log10 of the molar value. Counter-ions that a name gives are not always drawn.

Key:
D597N rnNOS = D597N rnNOS (Rattus norvegicus, UniProt P29476, D597N)
human eNOS (heNOS) = human eNOS (heNOS) (Homo sapiens, UniProt P29474)
H2 receptor = H2 receptor (Homo sapiens, UniProt P25021); test: PDSP off-target binding, H2 receptor
human iNOS (hiNOS) = human iNOS (hiNOS) (Homo sapiens, UniProt P35228); details: read-out: Ki hiNOS; purified human iNOS; Ki from IC50 (Cheng-Prusoff)
[1] = from PAMPA-BBB Pe
rat nNOS (rnNOS) = rat nNOS (rnNOS) (Rattus norvegicus, UniProt P29476)
H3 receptor = H3 receptor (Homo sapiens, UniProt Q9Y5N1); test: PDSP off-target binding, H3 receptor
Chain of H3 receptor (Q9Y5N1 whole entry): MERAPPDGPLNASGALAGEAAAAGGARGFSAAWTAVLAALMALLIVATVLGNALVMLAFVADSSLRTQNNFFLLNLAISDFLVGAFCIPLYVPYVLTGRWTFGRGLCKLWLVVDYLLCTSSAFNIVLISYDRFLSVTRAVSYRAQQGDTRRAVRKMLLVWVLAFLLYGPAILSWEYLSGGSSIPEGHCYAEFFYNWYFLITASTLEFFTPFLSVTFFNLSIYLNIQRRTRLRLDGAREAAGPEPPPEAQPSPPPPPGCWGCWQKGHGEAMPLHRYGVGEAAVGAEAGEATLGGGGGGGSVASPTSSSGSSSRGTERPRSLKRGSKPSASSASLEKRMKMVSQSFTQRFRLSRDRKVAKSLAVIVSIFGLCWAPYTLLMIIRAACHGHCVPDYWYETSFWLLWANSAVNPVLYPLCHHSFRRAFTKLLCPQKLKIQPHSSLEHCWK

[2] = tested on: panel of 45 pharmacologically relevant CNS targets and receptors; test: PDSP off-target radioligand displacement screen; type: binding; details: for PDSP targets classified moderate / PDSP targets classified insignificant / PDSP targets classified weak / PDSP targets classified Concerning: number of 45 targets; for PDSP targets classified moderate: 100–300 nM; for PDSP targets classified insignificant: <50% bound at 10 μM; for PDSP targets classified weak: >300 nM; for fraction of concerning or moderate hits: PDSP panel
M336V/D597N rnNOS = M336V/D597N rnNOS (Rattus norvegicus, UniProt P29476, D597N/M336V); details: M336V/D597N vs D597N rnNOS
Chain of M336V/D597N rnNOS (P29476 whole entry M336V/D597N): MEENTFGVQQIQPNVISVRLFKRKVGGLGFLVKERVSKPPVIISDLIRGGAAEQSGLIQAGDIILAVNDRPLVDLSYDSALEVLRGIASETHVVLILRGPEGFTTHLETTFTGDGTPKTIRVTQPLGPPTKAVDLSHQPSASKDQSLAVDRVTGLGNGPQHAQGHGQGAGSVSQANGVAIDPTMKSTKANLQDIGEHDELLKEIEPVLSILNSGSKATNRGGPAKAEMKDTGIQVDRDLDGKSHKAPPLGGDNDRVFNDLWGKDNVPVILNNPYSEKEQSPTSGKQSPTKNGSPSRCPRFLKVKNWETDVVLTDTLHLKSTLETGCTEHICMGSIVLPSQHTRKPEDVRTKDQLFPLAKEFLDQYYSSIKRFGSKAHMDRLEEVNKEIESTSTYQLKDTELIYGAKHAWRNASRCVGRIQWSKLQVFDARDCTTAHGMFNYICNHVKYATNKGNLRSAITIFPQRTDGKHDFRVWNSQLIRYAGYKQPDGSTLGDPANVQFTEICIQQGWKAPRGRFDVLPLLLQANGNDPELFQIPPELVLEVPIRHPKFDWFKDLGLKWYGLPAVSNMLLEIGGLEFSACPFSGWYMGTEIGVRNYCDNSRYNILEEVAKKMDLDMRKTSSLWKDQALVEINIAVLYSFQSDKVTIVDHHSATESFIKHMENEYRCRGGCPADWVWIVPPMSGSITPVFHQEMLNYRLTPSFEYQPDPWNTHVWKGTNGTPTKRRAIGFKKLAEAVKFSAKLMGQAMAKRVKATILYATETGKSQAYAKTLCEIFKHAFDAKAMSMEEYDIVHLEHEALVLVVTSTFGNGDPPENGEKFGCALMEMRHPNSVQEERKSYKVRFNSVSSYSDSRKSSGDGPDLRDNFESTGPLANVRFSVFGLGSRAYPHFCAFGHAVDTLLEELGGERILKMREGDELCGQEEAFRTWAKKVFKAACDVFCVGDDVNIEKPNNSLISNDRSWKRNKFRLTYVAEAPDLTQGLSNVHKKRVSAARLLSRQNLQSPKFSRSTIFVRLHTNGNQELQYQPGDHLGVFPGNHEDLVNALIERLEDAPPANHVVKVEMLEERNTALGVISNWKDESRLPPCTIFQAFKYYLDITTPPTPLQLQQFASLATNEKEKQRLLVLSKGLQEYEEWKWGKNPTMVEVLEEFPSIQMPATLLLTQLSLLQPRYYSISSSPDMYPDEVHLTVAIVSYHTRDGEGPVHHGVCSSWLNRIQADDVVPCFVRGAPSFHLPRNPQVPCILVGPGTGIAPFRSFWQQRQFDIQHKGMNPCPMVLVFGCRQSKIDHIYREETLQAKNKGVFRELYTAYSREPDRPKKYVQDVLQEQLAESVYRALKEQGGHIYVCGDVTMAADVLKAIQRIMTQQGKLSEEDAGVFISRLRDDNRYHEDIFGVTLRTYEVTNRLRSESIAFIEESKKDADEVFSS

Chain of H2 receptor (P25021 whole entry): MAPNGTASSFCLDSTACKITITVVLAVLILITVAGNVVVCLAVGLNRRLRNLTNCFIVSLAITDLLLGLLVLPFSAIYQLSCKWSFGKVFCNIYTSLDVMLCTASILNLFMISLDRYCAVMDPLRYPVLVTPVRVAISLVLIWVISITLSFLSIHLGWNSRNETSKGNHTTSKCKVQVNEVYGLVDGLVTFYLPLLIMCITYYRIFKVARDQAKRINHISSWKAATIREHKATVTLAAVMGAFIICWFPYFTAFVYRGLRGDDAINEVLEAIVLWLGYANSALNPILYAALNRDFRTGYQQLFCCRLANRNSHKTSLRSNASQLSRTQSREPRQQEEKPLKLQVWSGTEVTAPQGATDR

In the case of “7-(3-(2-Aminoethyl)phenyl)-4-methylquinolin-2-amine Dihydrochloride [compound 12]”, the pKi (D597N rnNOS; read-out: Ki D597N rnNOS, single mutant (SM) of rat nNOS) was 6.38, the “decrease in potency, D597N mutant” value (D597N rnNOS; versus wild type) was 8 fold and the pKi (human eNOS (heNOS); read-out: Ki heNOS, purified human eNOS, Ki calculated from IC50) was 4.28. The “% remaining at 60 min (- NADPH)” value (HLM without NADPH, pH 7.4) was 87%, the “% remaining at 60 min (Buffer)” value (buffer control) was 67% and the CLint (in vitro intrinsic clearance, HLM) was 8 mL/min/kg. The “off-target binding class, H2 receptor” value (H2 receptor) was “concerning (concerning (Ki < 100 nM, or <~2 × nNOS Ki value))”, the pKi (human iNOS (hiNOS)) was 4.52 and the “prediction (CNS)” value [1] was “CNS (+) (classified as a “CNS (+)” molecule if its effective permeability (Pe) in this assay is larger than 4.0 × 10^–6 cm s^–1)”.

For `CNCCc1ccc(-c2ccc3c(C)cc(N)nc3c2)cc1.Cl.Cl` [compound 6, 4-Methyl-7-(4-(2-(methylamino)ethyl)phenyl)quinolin-2-amine Dihydrochloride], the “loss in rnNOS activity” value (rat nNOS (rnNOS); relative to 5) was over 2 fold.

For `Cc1cc(N)nc2cc(-c3ccc(CN)cc3)ccc12.Cl.Cl` [compound 7, 7-(4-(Aminomethyl)phenyl)-4-methylquinolin-2-amine Dihydrochloride], the “increase in rnNOS activity” value (rat nNOS (rnNOS); relative to 5) was 2.3 fold and the “prediction (CNS)” value [1] was “CNS (+) (classified as a “CNS (+)” molecule if its effective permeability (Pe) in this assay is larger than 4.0 × 10^–6 cm s^–1)”.

For `Cc1cc(N)nc2cc(-c3cncc(CN)c3)ccc12.Cl.Cl.Cl` [compound 15, 7-(5-(Aminomethyl)pyridin-3-yl)-4-methylquinolin-2-amine Trihydrochloride], the “less potent than 12 in rnNOS” value (rat nNOS (rnNOS); relative to 12) was “approximately 5 fold”.

For `Cc1cc(N)nc2cc(-c3ccc(OCC4CC4)c(CN)c3)ccc12` [compound 29, 7-(3-(Aminomethyl)-4-(cyclopropylmethoxy)phenyl)-4-methylquinolin-2-amine Dihydrochloride], the “off-target binding class, H3 receptor” value (H3 receptor) was “concerning (concerning (Ki < 100 nM, or <~2 × nNOS Ki value))”, the “prediction (CNS)” value [1] was “CNS (+) (classified as a “CNS (+)” molecule if its effective permeability (Pe) in this assay is larger than 4.0 × 10^–6 cm s^–1)” and the “PDSP targets classified moderate” value [2] was 4. For the same compound, the “PDSP targets classified insignificant” value [2] was 13, the “PDSP targets classified weak” value [2] was 27 and the “PDSP targets classified Concerning” value ([2]; Ki < 100 nM) was 1.

For `Cc1cc(N)nc2cc(-c3ccc(OCc4ccccn4)c(CN)c3)ccc12` [compound 32, 7-(3-(Aminomethyl)-4-(pyridin-2-ylmethoxy)phenyl)-4-methylquinolin-2-amine Trihydrochloride], the “fraction of concerning or moderate hits” value [2] was 11 /45, the “PDSP targets classified insignificant” value [2] was 12 and the “PDSP targets classified weak” value [2] was 22. The “PDSP targets classified Concerning” value ([2]; […]) was 4.

With `Cc1cc(N)nc2cc(-c3ccc(OCc4cccnc4)c(CN)c3)ccc12` [compound 33, 7-(3-(Aminomethyl)-4-(pyridin-3-ylmethoxy)phenyl)-4-methylquinolin-2-amine Trihydrochloride] the “improvement in binding affinity toward heNOS” value (human eNOS (heNOS); 33 versus 32) was 3 fold, the “prediction (CNS)” value [1] was “CNS (+) (classified as a “CNS (+)” molecule if its effective permeability (Pe) in this assay is larger than 4.0 × 10^–6 cm s^–1)” and the “fraction of concerning or moderate hits” value [2] was 8 /45. For the same compound, the “PDSP targets classified moderate” value [2] was 5, the “PDSP targets classified insignificant” value [2] was 20 and the “PDSP targets classified weak” value [2] was 17. The “PDSP targets classified Concerning” value ([2]; […]) was 3.

With `Cc1cc(N)nc2cc(-c3ccc(OCc4cocn4)c(CN)c3)ccc12` [compound 36, 7-(3-(Aminomethyl)-4-(oxazol-4-ylmethoxy)phenyl)-4-methylquinolin-2-amine Trihydrochloride] the “increased potency against the double mutant (versus the single mutant)” value (M336V/D597N rnNOS) was 5 fold.

For `Cc1cc(N)nc2cc(-c3ccc(OCc4cncs4)c(CN)c3)ccc12` [compound 37, 7-(3-(Aminomethyl)-4-(thiazol-5-ylmethoxy)phenyl)-4-methylquinolin-2-amine Trihydrochloride], the “prediction (CNS)” value [1] was “CNS (+) (classified as a “CNS (+)” molecule if its effective permeability (Pe) in this assay is larger than 4.0 × 10^–6 cm s^–1)”.

In the case of `NCCc1ccc(O)c(O)c1` [dopamine, reference compound], the “prediction (CNS)” value [1] was “CNS (−)”.
